Assay results as given in US6455550B1, “N-alkanoylphenylalanine derivatives” (Hoffmann-La Roche Inc., priority 1997, dated 2002).
pIC50: −log10 of the molar value. Read-outs that look alike come from different tables or passages of the source.

Assays:
[1] = molecular target: T1, VLA-4 (α4β1 integrin) binding to immobilized VCAM-1 (Homo sapiens, UniProt P05556+P13612); experiment: VLA-4/VCAM-1 Screening Assay (solid-phase, dual antibody ELISA); details: for IC50: IC50 nM
T1 construct: followed by 10 μl of Ramos cell-derived VLA-4; endogenous in cells; host or cells: Ramos cells (VLA-4 preparation derived from the cells)
T1 sequence (P13612 34-1032): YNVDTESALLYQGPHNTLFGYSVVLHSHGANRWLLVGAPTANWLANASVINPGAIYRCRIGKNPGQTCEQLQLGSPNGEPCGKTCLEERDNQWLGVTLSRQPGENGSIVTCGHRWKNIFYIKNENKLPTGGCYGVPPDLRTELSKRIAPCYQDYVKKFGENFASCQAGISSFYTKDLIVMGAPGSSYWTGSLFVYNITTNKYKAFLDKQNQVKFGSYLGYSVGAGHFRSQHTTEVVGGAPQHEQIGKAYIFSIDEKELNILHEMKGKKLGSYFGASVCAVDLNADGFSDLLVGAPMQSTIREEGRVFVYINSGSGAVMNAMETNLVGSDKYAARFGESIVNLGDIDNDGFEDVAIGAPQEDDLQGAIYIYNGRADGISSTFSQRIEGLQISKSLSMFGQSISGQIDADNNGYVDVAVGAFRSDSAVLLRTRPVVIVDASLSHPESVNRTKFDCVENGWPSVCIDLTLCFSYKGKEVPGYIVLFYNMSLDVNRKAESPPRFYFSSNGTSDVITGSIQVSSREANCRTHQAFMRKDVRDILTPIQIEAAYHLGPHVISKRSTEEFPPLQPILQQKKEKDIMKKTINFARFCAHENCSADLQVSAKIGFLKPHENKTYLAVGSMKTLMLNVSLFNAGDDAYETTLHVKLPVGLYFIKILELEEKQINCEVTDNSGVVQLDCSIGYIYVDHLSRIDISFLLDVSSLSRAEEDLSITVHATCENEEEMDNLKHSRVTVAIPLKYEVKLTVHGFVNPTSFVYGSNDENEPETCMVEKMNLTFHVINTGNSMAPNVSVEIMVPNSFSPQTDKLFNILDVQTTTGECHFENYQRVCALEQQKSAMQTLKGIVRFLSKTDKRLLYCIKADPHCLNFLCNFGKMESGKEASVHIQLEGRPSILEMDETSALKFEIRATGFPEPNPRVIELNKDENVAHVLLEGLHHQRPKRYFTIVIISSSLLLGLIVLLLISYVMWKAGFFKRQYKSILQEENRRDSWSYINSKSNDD
T1 sequence (P05556 21-798): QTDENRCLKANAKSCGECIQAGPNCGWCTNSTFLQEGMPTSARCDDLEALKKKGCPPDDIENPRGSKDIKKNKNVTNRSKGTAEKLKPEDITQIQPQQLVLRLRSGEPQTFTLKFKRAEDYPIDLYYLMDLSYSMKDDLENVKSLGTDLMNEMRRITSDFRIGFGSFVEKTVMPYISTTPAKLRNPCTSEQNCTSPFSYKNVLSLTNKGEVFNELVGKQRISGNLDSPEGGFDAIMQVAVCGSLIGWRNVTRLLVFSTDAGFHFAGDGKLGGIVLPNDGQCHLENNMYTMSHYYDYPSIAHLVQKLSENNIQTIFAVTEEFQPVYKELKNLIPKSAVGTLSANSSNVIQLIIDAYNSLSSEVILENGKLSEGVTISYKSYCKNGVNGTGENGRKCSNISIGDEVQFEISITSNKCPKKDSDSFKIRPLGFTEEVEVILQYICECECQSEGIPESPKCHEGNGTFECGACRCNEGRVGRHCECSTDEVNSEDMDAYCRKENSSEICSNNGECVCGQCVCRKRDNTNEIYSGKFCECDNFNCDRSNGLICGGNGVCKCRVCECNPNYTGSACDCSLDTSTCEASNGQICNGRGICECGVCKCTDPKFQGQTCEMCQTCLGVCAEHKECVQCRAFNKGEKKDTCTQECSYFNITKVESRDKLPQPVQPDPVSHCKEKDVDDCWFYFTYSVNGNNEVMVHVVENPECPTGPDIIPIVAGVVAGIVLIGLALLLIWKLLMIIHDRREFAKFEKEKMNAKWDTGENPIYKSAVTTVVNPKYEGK
Summary of the method: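 Recombinant human VCAM-1 is coated onto plates and Ramos cell-derived VLA-4 is added with compound (final DMSO 5%) in Tris buffer pH 7.4 with 1 mM MnCl2 and 1 mg/mL BSA, 2 hr at 37° C. Bound VLA-4 is detected by anti-β1 antibody, HRP anti-mouse IgG and K-Blue colorimetry. Results are % inhibition of total binding.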

[2] = molecular target: T2, cell-surface VLA-4 (α4β1 integrin) on Ramos cells binding to immobilized VCAM-1 (Homo sapiens, UniProt P05556+P13612); experiment: Ramos (VLA-4)/VCAM-1 Cell-Based Screening Assay (cell adhesion); details: for IC50: IC50 in Ramos Cell Based Assay (nM)
T2 construct: Ramos cells bearing cell-surface VLA-4; endogenous in cells; host or cells: Ramos cells (VLA-4); VCAM-1 purified from CHO cell culture media
T2 sequence (P13612 34-1032): as the sequence (P13612 34-1032) above
T2 sequence (P05556 21-798): as the sequence (P05556 21-798) above
Excerpt: Calcein-AM was purchased from Molecular Probes Inc.
VLA-4 (α4β1 integrin) antagonist activity, defined as ability to compete with cell-surface VLA-4 for binding to immobilized VCAM-1, was quantitated using a Ramos-VCAM-1 cell adhesion assay. Ramos cells bearing cell-surface VLA-4, were labeled with a fluorescent dye (Calcein-AM) and allowed to bind VCAM-1 in the presence or absence of test compounds.
Initially, this entailed coating 96 well plates (Nunc Maxisorp) with recombinant human VCAM-1 (100 ng in 100 μl PBS), sealing each plate and allowing the plates to stand at 4° C for Å18 hr. The VCAM-coated plates were subsequently washed twice with 0.05% Tween-20 in PBS, and then blocked for 1hr (room temperature) with 200 μl of Blocking Buffer (1% BSA/0.02% thimerosal) to reduce non-specific binding. Following the incubation with Blocking Buffer, plates were inverted, blotted and the remaining buffer aspirated. Each plate was then washed with 300 μl PBS, inverted and the remaining PBS aspirated.
Test compounds were dissolved in 100% DMSO and then diluted 1:25 in VCAM Cell Adhesion Assay Buffer (4 mM CaCl2, 4 mM MgCl2 in 50 mM TRIS-HCl, pH 7.5) (final DMSO=4%). […] 100 μl/well of each dilution was added to the VCAM-coated plates, followed by 100 μl of Ramos cells (200,000 cells/well in 1% BSA/PBS). […] Plates were inverted to remove non-adherent cells, blotted and 300 μl/well PBS added. Plates were again inverted, blotted and the remaining buffer gently aspirated. 100 μl Lysis Buffer (0.1% SDS in 50 mM TRIS-HCl, pH 8.5) was added to each well and agitated for 2 min on a rotary shaking platform.

[3] = Ramos cell-derived VLA-4, recombinant human VCAM-1 coated plates, 2 hr at 37° C.
[4] = Calcein-AM labeled Ramos cells, VCAM-1 coated plates, 45 min at room temperature, read-out: IC50 in Ramos Cell Based Assay
[5] = Calcein-AM labeled Ramos cells, VCAM-1 coated plates, 45 min at room temperature
[6] = Ramos cell-derived VLA-4, recombinant human VCAM-1 coated plates, 2 hr at 37° C., read-out: IC50

Structure (SMILES) | IC50 [1, 3] [nM] | pIC50 [2, 4] | IC50 [2, 5] [nM] | pIC50 [1, 6] | also measured
COCCC1(C(=O)N[C@@H](Cc2ccc(NC(=O)c3cc(C#N)ccc3Cl)cc2)C(=O)OC)CCCC1 [Example 362, 4-[(2-Chloro-5-cyanophenylcarbonyl)amino]-N-[[1-(2-methoxyethyl)cyclopentyl]carbonyl]-L-phenylalanine Methyl Ester] | – | – | – | – | melting point: 172 to 175 °C
Cn1nnnc1-c1ccc(CC2(C(=O)N[C@@H](Cc3ccc(NC(=O)c4c(Cl)cccc4Cl)cc3)C(=O)O)CCCC2)cc1 [Example 55] | 0.47 | 7.73 | – | – | –
CCCCC1(C(=O)N[C@@H](Cc2ccc(NC(=O)c3c(Cl)cccc3Cl)cc2)C(=O)O)CCCC1 [Example 270] | 1.1 | – | 150 | – | –
COCCCCC1(C(=O)N[C@@H](Cc2ccc(NC(=O)c3c(Cl)cccc3Cl)cc2)C(=O)O)CCCC1 [Example 250] | 0.32 | 7.55 | – | – | –
O=C(Nc1ccc(C[C@H](NC(=O)C2(CCCCO)CCCC2)C(=O)O)cc1)c1c(Cl)cccc1Cl [Example 255] | 0.5 | – | 27 | – | –
C/N=C(\S)NCCC1(C(=O)N[C@@H](Cc2ccc(NC(=O)c3c(Cl)cccc3Cl)cc2)C(=O)O)CCCC1 [Example 192] | 0.14 | – | 22 | – | –
COCCC1(C(=O)N[C@@H](Cc2ccc(NC(=O)c3c(Cl)cccc3Cl)cc2)C(=O)OC)CCCC1 [Example 397, 4-[[(2,6-Dichlorophenyl)carbonyl]amino]-N-[[1-(2-methoxyethyl)cyclopentyl]carbonyl]-L-phenylalanine Methyl Ester] | – | – | – | – | melting point: 85 to 87 °C
O=C(NCCC1(C(=O)N[C@@H](Cc2ccc(NC(=O)c3c(Cl)cccc3Cl)cc2)C(=O)O)CCCC1)c1ccncc1 [Example 160] | – | – | – | – | pIC50 [1]: 8.24; pIC50 [2]: 6.48
CS(=O)(=O)CCC1(C(=O)N[C@@H](Cc2ccc(NC(=O)c3c(Cl)cccc3Cl)cc2)C(=O)O)CCCC1 [Example 358] | – | – | 75 | – | melting point: 184 to 187 °C
Cn1nnnc1-c1cccc(CC2(C(=O)N[C@@H](Cc3ccc(NC(=O)c4c(Cl)cccc4Cl)cc3)C(=O)O)CCC2)c1 [Example 56] | – | 7.50 | – | 9.03 | –
COCC(=O)NCCC1(C(=O)N[C@@H](Cc2ccc(NC(=O)c3c(Cl)cccc3Cl)cc2)C(=O)O)CCCC1 [Example 162] | – | 7.64 | – | 8.92 | –
CC(C)(C)OC(=O)NCCC1(C(=O)N[C@@H](Cc2ccc(NC(=O)c3c(Cl)cccc3Cl)cc2)C(=O)O)CCCC1 [Example 254] | – | 6.44 | – | 8.70 | –
Cn1nnnc1-c1ccc(CC2(C(=O)N[C@@H](Cc3ccc(NC(=O)c4c(Cl)cccc4Cl)cc3)C(=O)O)CCC2)cc1 [Example 57] | 0.42 | – | 27 | – | –
CC(C)(C)OC(=O)NCC(=O)NCCC1(C(=O)N[C@@H](Cc2ccc(NC(=O)c3c(Cl)cccc3Cl)cc2)C(=O)O)CCCC1 [Example 216, 4-[[(2,6-dichlorophenyl)carbonyl]amino]-N-[[1-[2-[[2-[[(1,1-dimethylethoxy)carbonyl]amino]-1-oxoethyl]amino]ethyl]cyclopentyl]carbonyl]-L-phenylalanine] | – | 6.45 | – | 8.54 | –
COc1ccc(CC2(C(=O)N[C@@H](Cc3ccc(NC(=O)c4c(Cl)cccc4Cl)cc3)C(=O)O)CCCCC2)cc1 [Example 47, 4-[[(2,6-Dichlorophenyl)carbonyl]amino]-N-[[1-(4-methoxyphenylmethyl)cyclohexyl]carbonyl]-L-phenylalanine] | – | – | – | – | melting point: 136 to 140 °C
COC(=O)CCC(=O)NCCC1(C(=O)N[C@@H](Cc2ccc(NC(=O)c3c(Cl)cccc3Cl)cc2)C(=O)O)CCCC1 [Example 163] | – | 7.07 | – | 8.62 | –
NCCC1(C(=O)N[C@@H](Cc2ccc(NC(=O)c3c(Cl)cccc3Cl)cc2)C(=O)O)CCCC1 [Example 252] | 5.1 | – | 228 | – | –
COc1ccc(CC2(C(=O)N[C@@H](Cc3ccc(NC(=O)c4c(Cl)cccc4Cl)cc3)C(=O)O)CCCC2)cc1 [Example 43, 4-[[(2,6-Dichlorophenyl)carbonyl]amino]-N-[[1-[(4-methoxyphenyl)methyl]cyclopentyl]carbonyl]-L-phenylalanine] | – | 7.44 | – | 9.20 | –

Structure (SMILES) | IC50 [1, 3] [nM] | pIC50 [2, 4] | IC50 [2, 5] [nM] | pIC50 [1, 6] | also measured
CNC(=O)NCCC1(C(=O)N[C@@H](Cc2ccc(NC(=O)c3c(Cl)cccc3Cl)cc2)C(=O)O)CCCC1 [Example 187, 4-[[(2,6-Dichlorophenyl)carbonyl]amino]-N-[[1-[2-[[(methylamino)carbonyl]amino]ethyl]cyclopentyl]carbonyl]-L-phenylalanine] | – | 8.24 | – | 9.59 | –
O=C(Nc1ccc(C[C@H](NC(=O)C2(CCN3CCOCC3)CCCC2)C(=O)O)cc1)c1c(Cl)cccc1Cl [Example 256] | 2.4 | – | 151 | – | –
O=C(NCCC1(C(=O)N[C@@H](Cc2ccc(NC(=O)c3c(Cl)cccc3Cl)cc2)C(=O)O)CCCC1)c1ccno1 [Example 158] | – | 6.91 | – | 8.30 | –
N#CCC1(C(=O)N[C@@H](Cc2ccc(NC(=O)c3c(Cl)cccc3Cl)cc2)C(=O)O)CCCC1 [Example 272] | – | – | 96 | 9.00 | –
C[S+]([O-])CCC1(C(=O)N[C@@H](Cc2ccc(NC(=O)c3c(Cl)cccc3Cl)cc2)C(=O)O)CCCC1 (stereo partly drawn) [Example 357] | – | – | 25 | – | melting point: 255 to 258 °C
CC(=O)N(C)CCC1(C(=O)N[C@@H](Cc2ccc(NC(=O)c3c(Cl)cccc3Cl)cc2)C(=O)O)CCCC1 [Example 200, 4-[[(2,6-Dichlorophenyl)carbonyl]amino]-N-[[1-[2-[(acetyl)(methyl)amino]ethyl]cyclopentyl]carbonyl]-L-phenylalanine] | – | 7.72 | – | 9.09 | –
COc1ccc(C(=O)NCCC2(C(=O)N[C@@H](Cc3ccc(NC(=O)c4c(Cl)cccc4Cl)cc3)C(=O)O)CCCC2)cc1 [Example 257] | 40 | – | 635 | – | –
COCCC1(C(=O)N[C@@H](Cc2ccc(NC(=O)c3c(Cl)cccc3Cl)cc2)C(=O)O)CCCC1 [Example 398, 4-[[(2,6-Dichlorophenyl)carbonyl]amino]-N-[[1-(2-methoxyethyl)cyclopentyl]carbonyl]-L-phenylalanine] | – | – | – | – | melting point: 136 to 140 °C
COC(=O)N(C)CCC1(C(=O)N[C@@H](Cc2ccc(NC(=O)c3c(Cl)cccc3Cl)cc2)C(=O)O)CCCC1 [Example 202, 4-[[(2,6-Dichlorophenyl)carbonyl]amino]-N-[[1-[2-[(methoxycarbonyl)(methyl)amino]ethyl]cyclopentyl]carbonyl]-L-phenylalanine] | – | 7.51 | – | 9.00 | –
COC(=O)NCCC1(C(=O)N[C@@H](Cc2ccc(NC(=O)c3c(Cl)cccc3Cl)cc2)C(=O)O)CCCC1 [Example 193] | – | 7.40 | – | 9.26 | –
COc1ccc(CC2(C(=O)N[C@@H](Cc3ccc(NC(=O)c4c(Cl)cccc4Cl)cc3)C(=O)O)CCCC2)cc1 [Example 95] | – | 7.46 | – | 9.16 | –
COCCC1(C(=O)N[C@@H](Cc2ccc(N3C(=O)c4ccc(C#N)cc4C3=O)cc2)C(=O)O)CCCC1 [Example 371, 4-(5-Cyano-1,3-dioxo-2H-isoindol-2-yl)-N-[[1-(2-methoxyethyl)cyclopentyl]carbonyl]-L-phenylalanine] | – | – | – | 8.78 | melting point: 143 to 146 °C
Cc1cc([N+](=O)[O-])ccc1C(=O)Nc1ccc(C[C@H](NC(=O)C2(C)CC2(Cl)Cl)C(=O)O)cc1 (stereo partly drawn) [Example 100] | – | 7.26 | – | 9.59 | –
CSCCC1(C(=O)N[C@@H](Cc2ccc(NC(=O)c3c(Cl)cccc3Cl)cc2)C(=O)O)CCCC1 [Example 249] | 0.29 | – | 62 | – | –
C=CCCC1(C(=O)N[C@@H](Cc2ccc(NC(=O)c3c(Cl)cccc3Cl)cc2)C(=O)O)CCCC1 [Example 271] | 0.55 | 7.17 | – | – | –
[N-]=[N+]=NCCC1(C(=O)N[C@@H](Cc2ccc(NC(=O)c3c(Cl)cccc3Cl)cc2)C(=O)O)CCCC1 [Example 58] | – | – | 47 | 9.24 | –
O=C(Nc1ccc(C[C@H](NC(=O)C2(CCNC(=O)C3CCCN3C(=O)C(F)(F)F)CCCC2)C(=O)O)cc1)c1c(Cl)cccc1Cl (stereo partly drawn) [Example 159] | – | 6.50 | – | 8.19 | –
